ChEMBL document CHEMBL1201862, “PubChem BioAssay data set” (2004)
Active and inactive are the calls of the source.

Tests used:
[1] = molecular target: T1, Beta-adrenergic receptor kinase 1 (Homo sapiens, UniProt P25098); assay: aptamer displacement from bead-bound GRK2 – biochemical, cherry pick 1, bead flow cytometry, dose response (AID 504500)
[2] = molecular target: T1, Beta-adrenergic receptor kinase 1; assay: Inhibitors of aptamer binding to bead-bound beta-adrenergic receptor kinase 1 by flow cytometry, biochemical, cherry pick 2, EC50 (AID 504815)
[3] = molecular target: T2, Carboxy-terminal domain RNA polymerase II polypeptide A small phosphatase 1 (Homo sapiens, UniProt Q9GZU7); assay: inhibitors of CTDSP1, concentration-response testing, biochemical assay, absorbance-based, actives from ultra-high-throughput screening (AID 540297); assay type: functional
T2 sequence (Q9GZU7 whole entry): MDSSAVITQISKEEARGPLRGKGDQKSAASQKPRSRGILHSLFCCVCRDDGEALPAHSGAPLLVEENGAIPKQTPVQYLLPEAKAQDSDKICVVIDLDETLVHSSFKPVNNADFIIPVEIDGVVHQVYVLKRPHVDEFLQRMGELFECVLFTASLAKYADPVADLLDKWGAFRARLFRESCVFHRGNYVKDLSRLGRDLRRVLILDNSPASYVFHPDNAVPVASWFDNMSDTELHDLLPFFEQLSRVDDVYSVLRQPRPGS

HEK293 [4] = assay: SAR Analysis of small molecule inhibitors of T-cell specific antigen receptor-induced NF-kB activation in a HEK-293T cell line using a luminescence assay - Set 2. [Related pubchem assays (depositor defined):AID435003, AID435012, AID489026]; assay type: functional, cell-based; conditions: Homo sapiens
Paired box protein Pax-8 = Paired box protein Pax-8 (Homo sapiens, UniProt Q06710); assay: inhibitors of PAX8-driven TPO luciferase reporter, dose response, RMG-I cells, cherry-pick (AID 687027); assay type: functional, cell-based;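 note: luciferase reporter driven by Pax8 target thyroperoxidase promoter measured by SteadyGlo luminescence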
Sequence of Paired box protein Pax-8 (Q06710 whole entry): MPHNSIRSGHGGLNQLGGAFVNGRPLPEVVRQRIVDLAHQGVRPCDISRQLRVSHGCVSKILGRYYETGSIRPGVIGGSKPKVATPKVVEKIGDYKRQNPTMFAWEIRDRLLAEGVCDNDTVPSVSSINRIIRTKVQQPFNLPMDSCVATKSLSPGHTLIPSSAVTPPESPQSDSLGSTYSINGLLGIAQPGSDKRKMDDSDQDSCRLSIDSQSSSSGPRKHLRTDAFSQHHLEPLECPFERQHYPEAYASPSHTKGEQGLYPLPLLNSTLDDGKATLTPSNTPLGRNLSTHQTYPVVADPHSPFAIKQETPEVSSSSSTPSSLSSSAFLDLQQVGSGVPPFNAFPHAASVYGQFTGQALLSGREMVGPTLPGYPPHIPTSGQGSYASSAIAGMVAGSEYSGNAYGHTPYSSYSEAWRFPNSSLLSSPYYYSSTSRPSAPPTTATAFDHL

HEK293 [5] = assay: cytotoxicity in HEK293T NF-kB-Luc cells, SAR follow-up, cytotoxicity control for NF-kB activator project, cell-based, resazurin fluorescence (AID 493251); assay type: functional; conditions: Homo sapiens
[6] = NIH-3T3 fibroblast cytotoxicity, dose response, cytotoxicity control, cell-based, fluorescence, Alamar Blue, secondary assay (AID 2327); assay type: functional;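 note: NIH-3T3 mouse fibroblasts cultured with fluconazole at 8 µg/mL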
Steroidogenic factor 1 = Steroidogenic factor 1 (Homo sapiens, UniProt Q13285); assay: Counterscreen for inverse agonists of the liver receptor homolog-1 (LRH-1; NR5A2): Luminescence-based cell-based high throughput dose response assay to identify inverse agonists of the Steroidogenic Factor 1 Nuclear Receptor (SF1; NR5A1).; assay type: functional
Sequence of Steroidogenic factor 1 (Q13285 whole entry): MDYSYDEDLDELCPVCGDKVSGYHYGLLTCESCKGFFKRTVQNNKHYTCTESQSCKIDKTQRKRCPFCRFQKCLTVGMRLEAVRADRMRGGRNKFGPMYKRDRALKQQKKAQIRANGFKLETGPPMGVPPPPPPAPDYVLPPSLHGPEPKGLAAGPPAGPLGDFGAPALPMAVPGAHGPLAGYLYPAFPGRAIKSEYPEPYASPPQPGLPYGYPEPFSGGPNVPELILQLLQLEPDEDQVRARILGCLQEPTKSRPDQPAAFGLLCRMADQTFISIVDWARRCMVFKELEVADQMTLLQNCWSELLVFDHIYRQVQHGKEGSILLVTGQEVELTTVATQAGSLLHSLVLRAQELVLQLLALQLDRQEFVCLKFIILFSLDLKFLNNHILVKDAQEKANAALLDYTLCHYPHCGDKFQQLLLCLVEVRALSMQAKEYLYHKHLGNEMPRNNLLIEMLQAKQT

[7] = molecular target: Nuclear receptor subfamily 5 group A member 2 (Homo sapiens, UniProt O00482); assay type: functional, cell-based;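 note: HEK293T cells transfected with LRH-1 and a StAR promoter luciferase reporter; potency for inhibitors that lower LRH-1 driven reporter light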
Sequence of Nuclear receptor subfamily 5 group A member 2 (O00482 whole entry): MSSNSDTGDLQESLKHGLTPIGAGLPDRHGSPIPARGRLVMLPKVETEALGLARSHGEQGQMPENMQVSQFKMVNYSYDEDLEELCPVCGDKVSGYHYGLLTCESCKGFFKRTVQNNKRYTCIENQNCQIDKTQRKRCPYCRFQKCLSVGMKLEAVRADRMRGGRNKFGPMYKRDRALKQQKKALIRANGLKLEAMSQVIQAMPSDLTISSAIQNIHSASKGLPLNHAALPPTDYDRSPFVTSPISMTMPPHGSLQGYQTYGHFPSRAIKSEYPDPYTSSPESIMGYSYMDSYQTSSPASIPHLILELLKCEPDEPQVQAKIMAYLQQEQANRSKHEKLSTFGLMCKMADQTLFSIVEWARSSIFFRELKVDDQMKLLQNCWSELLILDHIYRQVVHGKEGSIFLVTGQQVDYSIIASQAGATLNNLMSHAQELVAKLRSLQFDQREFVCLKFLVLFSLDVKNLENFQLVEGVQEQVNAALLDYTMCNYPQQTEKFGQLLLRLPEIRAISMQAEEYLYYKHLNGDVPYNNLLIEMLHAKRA

[8] = molecular target: T3, Sphingosine 1-phosphate receptor 4 (Homo sapiens, UniProt O95977); assay: Fluorescence dose response cell-based high throughput screening assay for antagonists of the Sphingosine 1-Phosphate Receptor 4 (S1P4). [Related pubchem assays: 1524 (Confirmation in triplicates.), 1510 (Primary screen.)]; assay type: functional
T3 sequence (O95977 whole entry): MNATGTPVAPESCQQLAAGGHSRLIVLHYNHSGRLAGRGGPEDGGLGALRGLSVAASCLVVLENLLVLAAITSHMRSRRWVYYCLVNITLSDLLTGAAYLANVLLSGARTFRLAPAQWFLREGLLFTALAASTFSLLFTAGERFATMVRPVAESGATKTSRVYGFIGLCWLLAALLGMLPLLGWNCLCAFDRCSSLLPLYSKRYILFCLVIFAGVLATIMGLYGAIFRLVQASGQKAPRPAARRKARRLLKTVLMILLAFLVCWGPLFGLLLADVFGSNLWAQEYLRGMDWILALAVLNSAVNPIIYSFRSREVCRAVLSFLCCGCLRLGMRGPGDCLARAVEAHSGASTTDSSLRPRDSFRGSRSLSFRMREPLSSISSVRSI

[9] = molecular target: SWI/SNF-related matrix-associated actin-dependent regulator of chromatin subfamily A member 2 (Homo sapiens, UniProt P51531); assay: Luminescence-based cell-based high throughput dose response assay to identify activators of the function of SWI/SNF related, matrix associated, actin dependent regulator of chromatin, subfamily a, member 2 (SMARCA2, BRM).; assay type: functional
Sequence of SWI/SNF-related matrix-associated actin-dependent regulator of chromatin subfamily A member 2 (P51531 whole entry): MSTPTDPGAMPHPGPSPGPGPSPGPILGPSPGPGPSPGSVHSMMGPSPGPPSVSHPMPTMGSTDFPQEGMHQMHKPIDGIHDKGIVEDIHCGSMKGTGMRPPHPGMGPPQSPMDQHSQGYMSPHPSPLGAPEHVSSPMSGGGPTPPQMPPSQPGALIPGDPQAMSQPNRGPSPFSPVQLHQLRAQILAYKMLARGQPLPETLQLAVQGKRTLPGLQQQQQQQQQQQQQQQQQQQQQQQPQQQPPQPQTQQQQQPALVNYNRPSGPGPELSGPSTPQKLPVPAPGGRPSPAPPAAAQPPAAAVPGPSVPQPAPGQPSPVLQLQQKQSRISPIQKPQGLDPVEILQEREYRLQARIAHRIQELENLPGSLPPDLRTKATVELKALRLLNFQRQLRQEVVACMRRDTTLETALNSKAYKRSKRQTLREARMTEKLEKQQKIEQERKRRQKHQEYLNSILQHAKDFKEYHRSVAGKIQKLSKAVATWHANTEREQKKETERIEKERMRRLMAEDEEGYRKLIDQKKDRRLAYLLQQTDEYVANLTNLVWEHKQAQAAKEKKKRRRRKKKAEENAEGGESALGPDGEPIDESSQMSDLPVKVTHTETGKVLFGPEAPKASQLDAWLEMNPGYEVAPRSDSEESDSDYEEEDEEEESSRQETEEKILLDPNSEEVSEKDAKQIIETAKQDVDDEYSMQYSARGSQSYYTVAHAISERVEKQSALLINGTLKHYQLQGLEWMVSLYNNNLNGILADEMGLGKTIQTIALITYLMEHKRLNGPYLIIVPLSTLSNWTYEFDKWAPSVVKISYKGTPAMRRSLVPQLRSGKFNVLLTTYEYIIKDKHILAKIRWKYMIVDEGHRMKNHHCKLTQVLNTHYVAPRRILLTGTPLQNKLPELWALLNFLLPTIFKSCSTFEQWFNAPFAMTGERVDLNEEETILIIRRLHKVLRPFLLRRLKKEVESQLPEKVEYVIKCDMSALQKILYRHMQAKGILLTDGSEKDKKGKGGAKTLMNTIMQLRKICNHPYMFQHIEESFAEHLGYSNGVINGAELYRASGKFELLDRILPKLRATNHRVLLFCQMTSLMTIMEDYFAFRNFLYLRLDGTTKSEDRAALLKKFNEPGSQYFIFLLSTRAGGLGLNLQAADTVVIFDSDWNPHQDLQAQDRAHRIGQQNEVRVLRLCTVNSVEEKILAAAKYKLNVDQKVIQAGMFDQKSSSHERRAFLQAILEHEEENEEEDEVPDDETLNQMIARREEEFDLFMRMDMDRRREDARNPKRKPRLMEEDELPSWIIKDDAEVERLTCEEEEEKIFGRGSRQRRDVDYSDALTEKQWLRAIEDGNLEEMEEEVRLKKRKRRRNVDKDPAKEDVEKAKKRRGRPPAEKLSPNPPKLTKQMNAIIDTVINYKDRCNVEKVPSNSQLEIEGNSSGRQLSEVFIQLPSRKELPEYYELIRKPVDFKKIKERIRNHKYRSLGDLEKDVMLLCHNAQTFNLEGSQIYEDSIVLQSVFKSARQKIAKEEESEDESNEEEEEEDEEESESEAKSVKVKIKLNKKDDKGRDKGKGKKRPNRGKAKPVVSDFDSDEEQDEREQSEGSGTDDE

[10] = molecular target: Sphingosine 1-phosphate receptor 1 (Homo sapiens, UniProt P21453); assay type: functional;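 note: Tango beta-arrestin reporter U2OS cells stimulated with S1P near its EC80; inhibitor potency meaning antagonism of receptor activation by the natural agonist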
Sequence of Sphingosine 1-phosphate receptor 1 (P21453 whole entry): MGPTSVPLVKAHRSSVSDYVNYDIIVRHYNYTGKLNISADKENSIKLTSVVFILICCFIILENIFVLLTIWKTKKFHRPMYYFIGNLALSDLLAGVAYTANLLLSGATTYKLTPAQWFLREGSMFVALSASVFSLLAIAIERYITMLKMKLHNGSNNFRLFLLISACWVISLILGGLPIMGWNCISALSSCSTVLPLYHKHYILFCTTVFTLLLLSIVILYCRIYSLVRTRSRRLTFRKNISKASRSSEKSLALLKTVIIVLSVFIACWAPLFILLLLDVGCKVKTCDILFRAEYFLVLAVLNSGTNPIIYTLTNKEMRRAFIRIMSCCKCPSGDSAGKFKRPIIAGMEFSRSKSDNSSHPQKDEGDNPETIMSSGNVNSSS

[11] = Counterscreen for activators of the function of SWI/SNF related, matrix associated, actin dependent regulator of chromatin, subfamily a, member 2 (SMARCA2, BRM): Luminescence-based cell-based high throughput dose response assay to identify non-selective compounds using the VP16 reporter assay.; assay type: functional
[12] = StAR promoter reporter inhibition counter-screen, dose response, counter-screen for LRH-1 inverse agonist project, cell-based, luminescence, luciferase reporter (AID 651969); assay type: functional
Jurkat = assay: SAR Analysis of small molecule inhibitors of T-cell specific antigen receptor-induced NF-kB activation in a Jurkat cell line using a luminescence assay - Set 2. [Related pubchem assays (depositor defined):AID435003, AID435012, AID465]; assay type: functional, cell-based; conditions: Homo sapiens
[13] = molecular target: T4, Microphthalmia-associated transcription factor (Homo sapiens, UniProt O75030); assay: TRPM1 promoter luciferase signal decrease, dose response, MITF inhibitor project, cell-based, SK-MEL-5, cherry-picked, set 3 (AID 493073); assay type: functional
T4 sequence (O75030 whole entry): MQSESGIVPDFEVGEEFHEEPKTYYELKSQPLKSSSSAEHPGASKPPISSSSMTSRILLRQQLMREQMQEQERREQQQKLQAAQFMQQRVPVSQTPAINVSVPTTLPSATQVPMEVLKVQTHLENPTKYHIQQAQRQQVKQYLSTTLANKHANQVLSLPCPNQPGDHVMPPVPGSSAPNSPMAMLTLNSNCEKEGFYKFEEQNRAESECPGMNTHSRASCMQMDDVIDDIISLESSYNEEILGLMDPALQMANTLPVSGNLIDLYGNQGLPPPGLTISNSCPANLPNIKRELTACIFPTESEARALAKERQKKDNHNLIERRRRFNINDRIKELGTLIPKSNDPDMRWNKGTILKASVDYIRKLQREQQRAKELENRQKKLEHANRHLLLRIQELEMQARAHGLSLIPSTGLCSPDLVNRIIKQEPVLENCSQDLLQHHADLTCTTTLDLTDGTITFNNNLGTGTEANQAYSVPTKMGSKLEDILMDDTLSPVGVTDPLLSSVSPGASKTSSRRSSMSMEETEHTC

[14] = C. albicans growth with fluconazole, confirmation, fluorescence, retest (AID 2467); assay type: functional, cell-based

T1 sequence (P25098 whole entry): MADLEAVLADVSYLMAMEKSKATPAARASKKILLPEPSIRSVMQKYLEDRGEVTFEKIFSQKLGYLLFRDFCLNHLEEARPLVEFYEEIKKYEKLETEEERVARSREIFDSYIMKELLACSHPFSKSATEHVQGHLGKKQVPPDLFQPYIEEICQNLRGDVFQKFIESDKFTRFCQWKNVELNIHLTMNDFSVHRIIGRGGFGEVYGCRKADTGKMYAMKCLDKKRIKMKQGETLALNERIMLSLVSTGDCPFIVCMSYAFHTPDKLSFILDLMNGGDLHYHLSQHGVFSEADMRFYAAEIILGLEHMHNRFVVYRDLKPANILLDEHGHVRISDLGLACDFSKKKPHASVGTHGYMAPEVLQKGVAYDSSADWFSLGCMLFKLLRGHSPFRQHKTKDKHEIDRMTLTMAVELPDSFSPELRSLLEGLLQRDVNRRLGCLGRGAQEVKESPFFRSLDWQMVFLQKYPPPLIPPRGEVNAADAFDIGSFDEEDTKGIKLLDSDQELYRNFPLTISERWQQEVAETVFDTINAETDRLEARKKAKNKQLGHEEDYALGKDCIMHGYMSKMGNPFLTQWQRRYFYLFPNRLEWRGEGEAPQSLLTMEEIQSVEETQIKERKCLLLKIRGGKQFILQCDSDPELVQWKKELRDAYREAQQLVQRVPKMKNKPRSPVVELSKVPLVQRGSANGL

EC50 [1] | EC50 [2] | IC50 [3] | Compound | IC50 (HEK293 [4]) | AC50 (Paired box protein Pax-8) | IC50 (HEK293 [5]) | EC50 [6] | IC50 (Steroidogenic factor 1) | IC50 [7] | IC50 [8] | EC50 [9] | IC50 [10] | EC50 [11] | IC50 [12] | IC50 (Jurkat) | AC50 [13] | EC50 [14]
58.3 µM (inactive) | 6.25 µM (active) | 6.99 µM (active) | CCc1cccc(NC(=O)CCS(=O)(=O)c2ccc(Br)cc2)c1 | – | – | – | – | – | – | – | – | – | – | – | – | – | –
– | – | – | Cc1cc(NC(=O)c2ccc([N+](=O)[O-])o2)ccc1NC(=O)c1ccco1 | 27 µM (inactive) | 5.2 µM (active) | 42.4 µM (inactive) | 4.78 µM (inconclusive) | 0.766 µM (active) | 35.9 µM (inactive) | 1.87 µM (active) | > 91.2 µM (inactive) | 11.5 µM (not active) | > 91.2 µM (inactive) | 35.9 µM (inactive) | 31.1 µM (inactive) | 7.8 µM (active) | > 38 µM (not active)
